Tests used:
icIL-1ra type 1 mRNA = test: antisense oligonucleotide against icIL-1ra type 1 in HF-icIL-1ra fibroblasts, MMP-1 mRNA by RT-PCR; format: cell-based, human; conditions: for MMP-1 mRNA levels: HF-icIL-1ra, vs PBS, empty liposome, scrambled oligonucleotide
Protocol: Phosphorothioate-derivatized antisense oligodeoxynucleotide complimentary to −6 to +12 of the natural icIL-1ra was synthesized and purified by HPLC Integrated DNA Technologies Inc. (Coralville, Iowa). As a control, antisense oligonucleotide with a scrambled sequence was prepared by a similar method. Fibroblasts over-expressing icIL-1ra type 1 were transfected with […] of antisense icIL-1ra type 1 oligonucleotide (24 h prior to stimulation with 100 pg/ml of IL-1 beta) using LipofectAMINE™ protocol. PBS and LipofectAMINE™ alone served as additional controls. The cells were harvested 12-18 h after stimulation for RNA extraction. Total RNA was reverse transcribed and MMP-1 mRNA was estimated by semi-quantitative RT-PCR.
Fibroblasts over-expressing icIL-1ra type 1 were transfected with different concentrations of antisense icIL-1ra type 1 oligonucleotide (24 h prior to stimulation with IL-1β) using LipofectAMINE. PBS alone, LipofectAMINE alone and treatment with oligonucleotide having scrambled sequence served as controls. The cells were harvested 12-18 h after stimulation for RNA extraction. Total RNA was reverse transcribed and MMP-1 mRNA was estimated by real time RT-PCR. The values indicate mean±SD of three independent experiments performed on same batch of transfected geneticin selected fibroblasts (LIPO: LipofectAMINE alone, ANTIS-LIP: Antisense icIL-1ra oligonucleotide+LipofectAMINE, SCRAM-LIP: Scrambled oligonucleotide+LipofectAMINE).
Cells transfected with intracellular isoform of IL-1 receptor antagonist type 1 (HF-icIL-1ra) were treated with varying concentrations of antisense oligonucleotide directed against the intracellular isoform of IL-1 receptor antagonist type 1 mRNA. Oligonucleotide with a scrambled sequence was used as control. Both oligonucleotides were mixed with LipofectAMINE™ reagent to enhance cellular uptake.
Using the approach described in Example 5, a phosphorothioate-derivatized antisense oligodeoxynucleotide complimentary to −6 to +12 (5′-CGTCTGTAAAGGCATGGG-3′ SEQ ID NO: 41) of the natural icIL-1ra type 1 was synthesized and RHPLC purified. […]

collagenase (MMP-1) = test: IL-1β-induced collagenase (MMP-1) production by dermal fibroblasts, ELISA; format: cell-based, human; conditions: added 2 hours before IL-1β, 48 hrs, IL1β + PBS 1351, PBS + PBS 556
Protocol: Confluent fibroblast monolayer cultures were treated for 2 hr with IL-1ra peptides and cultured for 48 h with hrIL-1β. Collagenase protein was measured in culture supernatants by ELISA.
Furthermore, the effect of the IL-1ra peptides on the stimulation of MMP-1 and TIMP expression was examined. Briefly, fibroblasts were seeded in wells of Flacon 3008 multiwell plates (5×10^4 cells/500 μl Maintenance Medium). After 72 h culture, the medium was removed from each well and replaced with Maintenance Medium (450 μl) containing 5% FCS and 25 μl of IL-1ra peptides or hrsIL-1ra peptide being tested. Two hrs later 25 μl IL-1β (100 pg/ml) was added to appropriate wells. Plates were incubated for 48 h, at which time medium was collected from each well. Levels of TIMP and collagenase produced by fibroblasts during culture were measured by specific ELISA techniques as previously described (Postlethwaite et al., 1988).

[1] = test system: collagen-induced arthritis (CIA); test: collagen-induced arthritis in DBA/1 lac mice, peptides by s.c. injection; format: in vivo; conditions: s.c. 227 μg/kg once daily, 5 consecutive days each week, day 22 to day 50, vs control peptide IL-1ra 37-30
Protocol: Groups of 12 mice were treated with subcutaneous injections of NLS-IL-1ra 1-35 (SEQ ID NO: 18), NLS-IL-1ra 30-37 ([…]) or IL-1ra 37-30 (SEQ ID NO: 43) as a control beginning day 22 to day 50. Mice were injected once each consecutive 5 days out of each week. Mean arthritic score is shoon. P values are determined by Students' t test.
The peptides disclosed in table 11 were delivered to the mice using 2 approaches. The first approach consisted of daily injections for 5 days each week via the subcutaneous (s.c.) route after the first appearance of clinical arthritis. The second approach consisted of continuous delivery via a subcutaneously implanted osmotic pump. For these studies, the following protocols were used: Since a smaller fragment of the 37 amino acid IL-1ra peptide containing amino acids LVAGY (SEQ ID NO: 42) inhibit IL-1β, TNFα, and bFGF induction of MMP-1 in human fibroblasts in vitro, effects of several peptides containing the LVAGY (SEQ ID NO: 42) sequence (Table 11) on CIA in mice was examined.
For s.c. injected route of delivery, 36 six-week old female DBA-1 lac mice were immunized with a stable emulsion of complete Freund's adjuvant (CFA) and native bovine II prepared as previously described (Seyer et al., 1989). Each mouse received 100 μg CII in 50 μl of the CFA CII emulsion intradermally at the base of the tail. Beginning day 14 post immunization, mice were examined for the presence of paw swelling as an indication of the onset of arthritis. On day 21 post immunization, the first paw swelling occurred in 2 mice and on day 22 post immunization, mice were divided into groups of 12. NLS-IL-1ra 1-35 (SEQ ID NO: 18), NSL-IL-1ra 30-37 (SEQ ID NO: 43), and reverse control peptide IL-1ra 37-30 (SEQ ID NO: 44) were separately administered s.c. to groups of 12 mice beginning on day 22 post immunization to day 50 post immunization. […] Results described herein are expressed as the mean arthritic score per mouse arrived at by adding up the total joint scores for mice in each group divided by the number of mice in the group.

[2] = IL1β (100 pg/mL) + peptide 100 ng/mL
[3] = IL1β (100 pg/mL) + peptide 1 μg/mL
[4] = IL1β (100 pg/mL) + peptide 10 μg/mL

Substance | Collagenase (collagenase (MMP-1); [2]) [ng/mL] | Collagenase (collagenase (MMP-1); [3]) [ng/mL] | Collagenase (collagenase (MMP-1); [4]) [ng/mL] | reduced expression of MMP-1 mRNA and protein in icIL-1ra transfected fibroblasts (icIL-1ra type 1 mRNA; FIG. 36) | MMP-1 mRNA levels (icIL-1ra type 1 mRNA; 200 mM antisense, 1.0 ng/ml hrIL-1β) | MMP-1 mRNA levels (icIL-1ra type 1 mRNA; 300 mM antisense with LipofectAMINE, IL-1β stimulated, p=0.001) | suppression of CIA, mean arthritic score ([1]; listed as NSL IL-1ra 30-37) | suppression of CIA, mean arthritic score ([1]; listed as NSL-sIL-1ra 30-37)
5′-CGTCTGTAAAGGCATGGG-3′ (DNA, all phosphorothioate, methylation of C not given here) |  |  |  | reversed | significantly higher | significantly higher |  | 
FYLRNNQ (IL-1ra peptides) [SEQ ID NO: 22] | 1514 | 1827 | 1881 |  |  |  |  | 
KKKMEKRLVAGYLQG (IL-1ra peptide) [NLS IL-1ra 30-37] |  |  |  |  |  |  | suppressed CIA | effective in reducing arthritis
LVAGYLQG (IL-1ra peptides) [SEQ ID NO: 24] | 857 | 841 | 749 |  |  |  |  | 
MQAFRIWDVNQKTFYLR (IL-1ra peptides) [SEQ ID NO: 20] | 2644 | 2139 | 2036 |  |  |  |  | 

Now from value to substance, other results behind:

Collagenase (collagenase (MMP-1); [2]) [ng/mL] | Collagenase (collagenase (MMP-1); [3]) [ng/mL] | Collagenase (collagenase (MMP-1); [4]) [ng/mL] | Substance | reduced expression of MMP-1 mRNA and protein in icIL-1ra transfected fibroblasts (icIL-1ra type 1 mRNA; FIG. 36) | MMP-1 mRNA levels (icIL-1ra type 1 mRNA; 200 mM antisense, 1.0 ng/ml hrIL-1β) | MMP-1 mRNA levels (icIL-1ra type 1 mRNA; 300 mM antisense with LipofectAMINE, IL-1β stimulated, p=0.001) | suppression of CIA, mean arthritic score ([1]; listed as NSL IL-1ra 30-37) | suppression of CIA, mean arthritic score ([1]; listed as NSL-sIL-1ra 30-37)
2142 | 2361 | 2581 | FYLRNNQLVAGYLQG (IL-1ra peptides) [SEQ ID NO: 21] |  |  |  |  | 
541 | 619 | 1078 | NNQLVAGY (IL-1ra peptides) [SEQ ID NO: 23] |  |  |  |  | 
1746 | 1152 | 1267 | RPSGRKSSKMQAFRI (IL-1ra peptides) [SEQ ID NO: 19] |  |  |  |  | 

— patent US7674464B2, “Intracellular interleukin-1 receptor antagonists” (The University of Tennessee Research Foundation, priority 2004, dated 2010)
